# What was measured:
# Assay type in all cases: functional
# Staphylococcus aureus [1] = assay: Antibacterial activity against methicillin-resistant Staphylococcus aureus clinical isolate by broth microdilution method
# Streptococcus pyogenes = assay: Antibacterial activity against Streptococcus pyogenes clinical isolate by broth microdilution method
# Streptococcus pneumoniae [2] = assay: Antibacterial activity against penicillin-susceptible Streptococcus pneumoniae clinical isolate by broth microdilution method
# Enterococcus faecium [3] = assay: Antibacterial activity against linezolid-resistant Enterococcus faecium 03B1077 by broth microdilution method
# Staphylococcus aureus [4] = assay: Antibacterial activity against glycopeptide-intermediate Staphylococcus aureus clinical isolate by broth microdilution method
# Corynebacterium sp. = assay: Antibacterial activity against Corynebacterium sp. by broth microdilution method
# Listeria monocytogenes = assay: Antibacterial activity against Listeria monocytogenes clinical isolate by broth microdilution method
# Enterococcus faecium [5] = assay: Antibacterial activity against vancomycin-susceptible Enterococcus faecium clinical isolate by broth microdilution method
# Streptococcus pneumoniae [6] = assay: Antibacterial activity against penicillin-nonsusceptible Streptococcus pneumoniae clinical isolate by broth microdilution method
# Staphylococcus aureus [7] = assay: Antibacterial activity against linezolid-resistant Staphylococcus aureus 01A1221 by broth microdilution method
# Staphylococcus = assay: Antibacterial activity against coagulase-negative Staphylococcus clinical isolate by broth microdilution method
# Staphylococcus aureus [8] = assay: Antibacterial activity against methicillin-susceptible Staphylococcus aureus clinical isolate by broth microdilution method
# Enterococcus faecium [9] = assay: Antibacterial activity against linezolid-resistant Enterococcus faecium 03B1074 by broth microdilution method
# [10] = test system: Staphylococcus epidermidis; assay: Antibacterial activity against methicillin-susceptible Staphylococcus epidermidis clinical isolate by broth microdilution method
# Staphylococcus aureus [11] = assay: Antibacterial activity against linezolid-resistant Staphylococcus aureus 01A1220 by broth microdilution method
# Enterococcus faecalis [12] = assay: Antibacterial activity against linezolid-resistant Enterococcus faecalis 03A1128 by broth microdilution method
# Enterococcus faecium [13] = assay: Antibacterial activity against linezolid-resistant Enterococcus faecium 03B1075 by broth microdilution method
# Enterococcus faecium [14] = assay: Antibacterial activity against vancomycin-resistant Enterococcus faecium clinical isolate by broth microdilution method
# Enterococcus faecium [15] = assay: Antibacterial activity against linezolid-resistant Enterococcus faecium 03B1073 by broth microdilution method
# Enterococcus faecium [16] = assay: Antibacterial activity against linezolid-resistant Enterococcus faecium 03B1076 by broth microdilution method
# Enterococcus faecium [17] = assay: Antibacterial activity against linezolid-resistant Enterococcus faecium 03B1078 by broth microdilution method
# Enterococcus faecalis [18] = assay: Antibacterial activity against vancomycin-susceptible Enterococcus faecalis clinical isolate by broth microdilution method
# Enterococcus faecalis [19] = assay: Antibacterial activity against vancomycin-resistant Enterococcus faecalis clinical isolate by broth microdilution method
# Klebsiella pneumoniae [20] = assay: Antibacterial activity against extended-spectrum beta-lactamase producing Klebsiella pneumoniae clinical isolate by broth microdilution method
# Citrobacter koseri = assay: Antibacterial activity against Citrobacter diversus clinical isolate by broth microdilution method
# Pseudomonas aeruginosa = assay: Antibacterial activity against Pseudomonas aeruginosa clinical isolate by broth microdilution method
# Escherichia coli = assay: Antibacterial activity against Escherichia coli clinical isolate by broth microdilution method
# Klebsiella pneumoniae [21] = assay: Antibacterial activity against Klebsiella pneumoniae clinical isolate by broth microdilution method
# Legionella pneumophila = assay: Antibacterial activity against Legionella pneumophila clinical isolate by broth microdilution method
# Morganella morganii = assay: Antibacterial activity against Morganella morganii clinical isolate by broth microdilution method
# Serratia marcescens = assay: Antibacterial activity against Serratia marcescens clinical isolate by broth microdilution method
# Proteus vulgaris = assay: Antibacterial activity against Proteus vulgaris clinical isolate by broth microdilution method
# Klebsiella oxytoca = assay: Antibacterial activity against Klebsiella oxytoca clinical isolate by broth microdilution method
# Salmonella sp. = assay: Antibacterial activity against Salmonella sp. by broth microdilution method
# Acinetobacter sp. = assay: Antibacterial activity against Acinetobacter sp. by broth microdilution method
# Haemophilus influenzae = assay: Antibacterial activity against Haemophilus influenzae clinical isolate by broth microdilution method
# Providencia rettgeri = assay: Antibacterial activity against Providencia rettgeri clinical isolate by broth microdilution method
# Klebsiella aerogenes = assay: Antibacterial activity against Enterobacter aerogenes clinical isolate by broth microdilution method
# Burkholderia cepacia = assay: Antibacterial activity against Burkholderia cepacia clinical isolate by broth microdilution method
# Citrobacter freundii = assay: Antibacterial activity against Citrobacter freundii clinical isolate by broth microdilution method
# [22] = test system: Stenotrophomonas maltophilia; assay: Antibacterial activity against Stenotrophomonas maltophilia clinical isolate by broth microdilution method
# Neisseria sp. = assay: Antibacterial activity against Neisseria sp. by broth microdilution method
# Moraxella catarrhalis = assay: Antibacterial activity against Moraxella catarrhalis clinical isolate by broth microdilution method
# Shigella sp. = assay: Antibacterial activity against Shigella sp. by broth microdilution method
# Proteus mirabilis = assay: Antibacterial activity against Proteus mirabilis clinical isolate by broth microdilution method
# Enterobacter cloacae = assay: Antibacterial activity against Enterobacter cloacae clinical isolate by broth microdilution method
compound,measurement,setting,value
CC(=O)NC[C@H]1CN(c2ccc(N3CCOCC3)c(F)c2)C(=O)O1 [LINEZOLID],MIC,Staphylococcus aureus [1],1 µg/mL
same,MIC50,Staphylococcus aureus [1],1 µg/mL
same,MIC90,Staphylococcus aureus [1],1 µg/mL
same,MIC50,Streptococcus pyogenes,2 µg/mL
same,MIC90,Streptococcus pyogenes,2 µg/mL
same,MIC50,Streptococcus pneumoniae [2],1 µg/mL
same,MIC90,Streptococcus pneumoniae [2],1 µg/mL
same,MIC,Enterococcus faecium [3],8 µg/mL
same,MIC,Staphylococcus aureus [4],0.5 µg/mL
same,MIC50,Corynebacterium sp.,1 µg/mL
same,MIC90,Corynebacterium sp.,1 µg/mL
same,MIC,Listeria monocytogenes,2 µg/mL
same,MIC50,Listeria monocytogenes,2 µg/mL
same,MIC90,Listeria monocytogenes,2 µg/mL
same,MIC,Enterococcus faecium [5],2 µg/mL
same,MIC50,Enterococcus faecium [5],2 µg/mL
same,MIC90,Enterococcus faecium [5],2 µg/mL
same,MIC50,Streptococcus pneumoniae [6],0.5 µg/mL
same,MIC90,Streptococcus pneumoniae [6],1 µg/mL
same,MIC,Staphylococcus aureus [7],> 32 µg/mL
same,MIC50,Staphylococcus,2 µg/mL
same,MIC90,Staphylococcus,2 µg/mL
same,MIC50,Staphylococcus aureus [8],2 µg/mL
same,MIC90,Staphylococcus aureus [8],2 µg/mL
same,MIC,Enterococcus faecium [9],32 µg/mL
same,MIC50,[10],0.5 µg/mL
same,MIC90,[10],1 µg/mL
same,MIC,Staphylococcus aureus [11],> 32 µg/mL
same,MIC,Enterococcus faecalis [12],> 32 µg/mL
same,MIC,Enterococcus faecium [13],32 µg/mL
same,MIC50,Enterococcus faecium [14],2 µg/mL
same,MIC90,Enterococcus faecium [14],4 µg/mL
same,MIC,Enterococcus faecium [15],2 µg/mL
same,MIC,Enterococcus faecium [16],32 µg/mL
same,MIC,Enterococcus faecium [17],32 µg/mL
same,MIC50,Enterococcus faecalis [18],2 µg/mL
same,MIC90,Enterococcus faecalis [18],2 µg/mL
same,MIC50,Enterococcus faecalis [19],2 µg/mL
same,MIC90,Enterococcus faecalis [19],2 µg/mL
C[C@H]1COc2c(N3CCN(C)CC3)c(F)cc3c(=O)c(C(=O)O)cn1c23.C[C@H]1COc2c(N3CCN(C)CC3)c(F)cc3c(=O)c(C(=O)O)cn1c23.O [LEVOFLOXACIN],MIC50,Streptococcus pyogenes,0.5 µg/mL
same,MIC90,Streptococcus pyogenes,2 µg/mL
same,MIC50,Klebsiella pneumoniae [20],0.06 µg/mL
same,MIC90,Klebsiella pneumoniae [20],8 µg/mL
same,MIC50,Citrobacter koseri,0.06 µg/mL
same,MIC90,Citrobacter koseri,8 µg/mL
same,MIC50,Pseudomonas aeruginosa,2 µg/mL
same,MIC90,Pseudomonas aeruginosa,16 µg/mL
same,MIC50,Escherichia coli,0.06 µg/mL
same,MIC90,Escherichia coli,8 µg/mL
same,MIC50,Klebsiella pneumoniae [21],0.06 µg/mL
same,MIC90,Klebsiella pneumoniae [21],8 µg/mL
same,MIC50,Corynebacterium sp.,0.5 µg/mL
same,MIC90,Corynebacterium sp.,32 µg/mL
same,MIC50,Listeria monocytogenes,1 µg/mL
same,MIC90,Listeria monocytogenes,1 µg/mL
same,MIC50,Legionella pneumophila,0.004 µg/mL
same,MIC90,Legionella pneumophila,0.015 µg/mL
same,MIC50,Morganella morganii,0.06 µg/mL
same,MIC90,Morganella morganii,8 µg/mL
same,MIC50,Serratia marcescens,0.06 µg/mL
same,MIC90,Serratia marcescens,8 µg/mL
same,MIC50,Proteus vulgaris,0.06 µg/mL
same,MIC90,Proteus vulgaris,8 µg/mL
same,MIC50,Klebsiella oxytoca,0.06 µg/mL
same,MIC90,Klebsiella oxytoca,8 µg/mL
same,MIC50,Salmonella sp.,0.06 µg/mL
same,MIC90,Salmonella sp.,8 µg/mL
same,MIC50,Acinetobacter sp.,2 µg/mL
same,MIC90,Acinetobacter sp.,16 µg/mL
same,MIC50,Haemophilus influenzae,0.015 µg/mL
same,MIC90,Haemophilus influenzae,0.25 µg/mL
same,MIC50,Providencia rettgeri,0.06 µg/mL
same,MIC90,Providencia rettgeri,8 µg/mL
same,MIC50,Staphylococcus,0.25 µg/mL
same,MIC90,Staphylococcus,32 µg/mL
same,MIC50,Klebsiella aerogenes,0.06 µg/mL
same,MIC90,Klebsiella aerogenes,8 µg/mL
same,MIC50,Burkholderia cepacia,2 µg/mL
same,MIC90,Burkholderia cepacia,16 µg/mL
same,MIC50,Citrobacter freundii,0.06 µg/mL
same,MIC90,Citrobacter freundii,8 µg/mL
same,MIC50,[22],2 µg/mL
same,MIC90,[22],16 µg/mL
same,MIC50,Neisseria sp.,0.008 µg/mL
same,MIC90,Neisseria sp.,0.008 µg/mL
same,MIC50,Moraxella catarrhalis,0.06 µg/mL
same,MIC90,Moraxella catarrhalis,0.06 µg/mL
same,MIC50,Shigella sp.,0.06 µg/mL
same,MIC90,Shigella sp.,8 µg/mL
same,MIC50,Proteus mirabilis,0.06 µg/mL
same,MIC90,Proteus mirabilis,8 µg/mL
same,MIC50,Enterobacter cloacae,0.06 µg/mL
same,MIC90,Enterobacter cloacae,8 µg/mL
